# ChEMBL document CHEMBL3286323, “The design and synthesis of novel SGLT2 inhibitors: C-glycosides with benzyltriazolopyridinone and phenylhydantoin as the aglycone moieties” (Bioorg Med Chem, 2014)
# Legend:
# [1] = biological target: T1, Sodium/glucose cotransporter 1 (Homo sapiens, UniProt P13866); experiment: Inhibition of human SGLT1 expressed in CHOK1 cells assessed as inhibition of [14C]-AMG uptake after 3 hrs by microbeta scintillation counting analysis; type: cell-based, CHO-K1
# T1 sequence (P13866 whole entry): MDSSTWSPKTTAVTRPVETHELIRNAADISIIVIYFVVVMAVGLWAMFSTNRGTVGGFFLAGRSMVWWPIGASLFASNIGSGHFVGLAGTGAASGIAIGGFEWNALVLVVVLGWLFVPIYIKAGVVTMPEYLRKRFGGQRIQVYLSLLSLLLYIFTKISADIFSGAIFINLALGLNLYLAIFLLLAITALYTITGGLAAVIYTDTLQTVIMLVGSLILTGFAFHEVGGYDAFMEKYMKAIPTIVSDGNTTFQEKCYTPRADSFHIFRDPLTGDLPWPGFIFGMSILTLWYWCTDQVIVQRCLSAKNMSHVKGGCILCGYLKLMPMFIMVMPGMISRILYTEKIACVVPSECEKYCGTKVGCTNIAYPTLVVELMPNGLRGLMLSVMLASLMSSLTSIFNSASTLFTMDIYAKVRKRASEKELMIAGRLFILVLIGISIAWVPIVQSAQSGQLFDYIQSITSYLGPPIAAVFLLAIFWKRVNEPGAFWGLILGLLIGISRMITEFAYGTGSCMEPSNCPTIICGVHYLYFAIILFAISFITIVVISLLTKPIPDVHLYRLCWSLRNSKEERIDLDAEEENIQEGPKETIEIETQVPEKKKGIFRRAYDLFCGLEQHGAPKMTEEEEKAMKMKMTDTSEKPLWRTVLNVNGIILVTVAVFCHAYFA
# [2] = biological target: T2, Sodium/glucose cotransporter 2 (Homo sapiens, UniProt P31639); experiment: Inhibition of human SGLT2 expressed in CHOK1 cells assessed as inhibition of [14C]-AMG uptake after 3 hrs by microbeta scintillation counting analysis; type: cell-based, CHO-K1
# T2 sequence (P31639 whole entry): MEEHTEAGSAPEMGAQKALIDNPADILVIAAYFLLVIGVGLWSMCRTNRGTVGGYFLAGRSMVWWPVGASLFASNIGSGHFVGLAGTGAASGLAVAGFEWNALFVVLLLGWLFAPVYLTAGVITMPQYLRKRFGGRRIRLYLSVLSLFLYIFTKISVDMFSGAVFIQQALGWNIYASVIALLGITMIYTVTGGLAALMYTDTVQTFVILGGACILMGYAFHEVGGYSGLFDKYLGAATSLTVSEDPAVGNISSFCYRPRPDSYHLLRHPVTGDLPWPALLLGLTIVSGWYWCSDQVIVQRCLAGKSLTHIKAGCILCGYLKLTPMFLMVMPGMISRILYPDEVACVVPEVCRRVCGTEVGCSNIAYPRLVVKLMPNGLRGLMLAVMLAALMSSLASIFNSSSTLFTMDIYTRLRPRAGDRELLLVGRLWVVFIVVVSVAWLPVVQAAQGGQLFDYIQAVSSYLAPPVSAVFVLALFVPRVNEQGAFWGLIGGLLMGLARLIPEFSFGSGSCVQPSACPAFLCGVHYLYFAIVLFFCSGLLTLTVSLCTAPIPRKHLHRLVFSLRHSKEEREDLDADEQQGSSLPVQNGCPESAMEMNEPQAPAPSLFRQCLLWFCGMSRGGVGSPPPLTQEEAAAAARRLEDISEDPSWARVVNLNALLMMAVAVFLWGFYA
# [3] = biological target: T3, Cytochrome P450 1A2 (Homo sapiens, UniProt P05177); experiment: Inhibition of CYP1A2 (unknown origin); type: ADME
# T3 sequence (P05177 whole entry): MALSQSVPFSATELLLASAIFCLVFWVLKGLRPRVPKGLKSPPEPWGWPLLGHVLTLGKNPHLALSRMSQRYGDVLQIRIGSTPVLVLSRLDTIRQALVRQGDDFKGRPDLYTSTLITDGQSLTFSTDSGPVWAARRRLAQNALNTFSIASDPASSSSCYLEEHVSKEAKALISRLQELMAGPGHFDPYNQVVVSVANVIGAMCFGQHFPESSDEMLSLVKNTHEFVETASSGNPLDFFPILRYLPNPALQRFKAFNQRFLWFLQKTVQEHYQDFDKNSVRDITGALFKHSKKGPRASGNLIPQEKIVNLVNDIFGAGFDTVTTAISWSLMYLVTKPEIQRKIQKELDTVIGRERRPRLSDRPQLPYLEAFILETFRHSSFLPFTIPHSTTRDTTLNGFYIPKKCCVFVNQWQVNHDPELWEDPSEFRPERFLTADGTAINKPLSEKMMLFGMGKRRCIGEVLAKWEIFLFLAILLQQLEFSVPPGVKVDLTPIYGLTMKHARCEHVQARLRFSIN
# [4] = biological target: T4, Cytochrome P450 2B6 (Homo sapiens, UniProt P20813); experiment: Inhibition of CYP2B6 (unknown origin); type: ADME
# T4 sequence (P20813 whole entry): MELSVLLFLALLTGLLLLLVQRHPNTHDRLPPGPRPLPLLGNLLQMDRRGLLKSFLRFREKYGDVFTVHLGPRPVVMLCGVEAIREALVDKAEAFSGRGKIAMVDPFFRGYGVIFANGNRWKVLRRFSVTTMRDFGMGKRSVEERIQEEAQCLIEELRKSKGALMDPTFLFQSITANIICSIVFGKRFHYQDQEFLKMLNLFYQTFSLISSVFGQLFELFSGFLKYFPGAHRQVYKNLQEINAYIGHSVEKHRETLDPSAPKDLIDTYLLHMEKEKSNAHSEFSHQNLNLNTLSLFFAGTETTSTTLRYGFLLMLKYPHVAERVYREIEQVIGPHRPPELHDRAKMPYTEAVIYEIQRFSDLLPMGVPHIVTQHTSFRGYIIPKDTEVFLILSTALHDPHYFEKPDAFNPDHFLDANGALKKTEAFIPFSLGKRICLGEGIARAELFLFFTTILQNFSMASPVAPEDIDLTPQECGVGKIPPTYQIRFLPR
# [5] = biological target: Cytochrome P450 2C9 (Homo sapiens, UniProt P11712); experiment: Inhibition of CYP2C9 (unknown origin); type: ADME
# Chain of Cytochrome P450 2C9 (P11712 whole entry): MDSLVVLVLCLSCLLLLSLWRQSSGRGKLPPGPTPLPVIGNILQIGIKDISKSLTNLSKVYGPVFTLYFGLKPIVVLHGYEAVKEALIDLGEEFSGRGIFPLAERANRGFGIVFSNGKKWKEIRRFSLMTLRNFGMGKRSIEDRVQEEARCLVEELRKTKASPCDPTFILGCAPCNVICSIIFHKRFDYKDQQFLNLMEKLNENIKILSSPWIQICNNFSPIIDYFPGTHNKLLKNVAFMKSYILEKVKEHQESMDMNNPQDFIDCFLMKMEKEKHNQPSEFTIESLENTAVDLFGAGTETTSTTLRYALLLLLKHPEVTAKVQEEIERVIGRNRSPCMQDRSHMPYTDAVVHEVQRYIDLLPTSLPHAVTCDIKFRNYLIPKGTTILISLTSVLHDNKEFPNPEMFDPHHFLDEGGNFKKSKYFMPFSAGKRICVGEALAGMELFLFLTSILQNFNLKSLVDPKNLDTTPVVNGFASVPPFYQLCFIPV
# [6] = biological target: Cytochrome P450 2C19 (Homo sapiens, UniProt P33261); experiment: Inhibition of CYP2C19 (unknown origin); type: ADME
# Chain of Cytochrome P450 2C19 (P33261 whole entry): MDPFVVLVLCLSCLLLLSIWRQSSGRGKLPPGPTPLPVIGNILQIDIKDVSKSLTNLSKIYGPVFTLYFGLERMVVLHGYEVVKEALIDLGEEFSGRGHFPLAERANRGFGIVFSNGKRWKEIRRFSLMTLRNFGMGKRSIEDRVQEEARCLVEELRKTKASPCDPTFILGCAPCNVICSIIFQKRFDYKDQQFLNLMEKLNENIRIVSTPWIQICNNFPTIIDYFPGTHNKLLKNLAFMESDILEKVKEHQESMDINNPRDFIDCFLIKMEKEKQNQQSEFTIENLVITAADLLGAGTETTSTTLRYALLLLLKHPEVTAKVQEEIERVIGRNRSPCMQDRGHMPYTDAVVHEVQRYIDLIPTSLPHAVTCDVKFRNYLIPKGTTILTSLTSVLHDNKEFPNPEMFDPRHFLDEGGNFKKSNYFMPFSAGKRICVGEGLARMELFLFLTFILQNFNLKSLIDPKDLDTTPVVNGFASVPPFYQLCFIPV
# [7] = biological target: Cytochrome P450 2D6 (Homo sapiens, UniProt P10635); experiment: Inhibition of CYP2D6 (unknown origin); type: ADME
# Chain of Cytochrome P450 2D6 (P10635 whole entry): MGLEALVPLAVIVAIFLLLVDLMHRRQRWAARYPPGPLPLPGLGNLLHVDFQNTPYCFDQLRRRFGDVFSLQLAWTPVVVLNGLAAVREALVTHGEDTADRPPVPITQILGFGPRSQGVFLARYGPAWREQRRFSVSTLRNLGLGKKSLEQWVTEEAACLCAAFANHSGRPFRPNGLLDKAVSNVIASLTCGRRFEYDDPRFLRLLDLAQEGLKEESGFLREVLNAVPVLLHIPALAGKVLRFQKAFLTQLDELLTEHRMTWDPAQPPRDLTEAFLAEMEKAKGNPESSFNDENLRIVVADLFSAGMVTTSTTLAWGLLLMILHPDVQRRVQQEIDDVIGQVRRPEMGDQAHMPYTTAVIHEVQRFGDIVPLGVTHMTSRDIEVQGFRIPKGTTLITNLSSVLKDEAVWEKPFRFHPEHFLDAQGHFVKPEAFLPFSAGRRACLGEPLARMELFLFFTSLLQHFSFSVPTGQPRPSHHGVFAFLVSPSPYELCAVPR
# [8] = biological target: Cytochrome P450 3A4 (Homo sapiens, UniProt P08684); experiment: Inhibition of CYP3A4 (unknown origin); type: ADME
# Chain of Cytochrome P450 3A4 (P08684 whole entry): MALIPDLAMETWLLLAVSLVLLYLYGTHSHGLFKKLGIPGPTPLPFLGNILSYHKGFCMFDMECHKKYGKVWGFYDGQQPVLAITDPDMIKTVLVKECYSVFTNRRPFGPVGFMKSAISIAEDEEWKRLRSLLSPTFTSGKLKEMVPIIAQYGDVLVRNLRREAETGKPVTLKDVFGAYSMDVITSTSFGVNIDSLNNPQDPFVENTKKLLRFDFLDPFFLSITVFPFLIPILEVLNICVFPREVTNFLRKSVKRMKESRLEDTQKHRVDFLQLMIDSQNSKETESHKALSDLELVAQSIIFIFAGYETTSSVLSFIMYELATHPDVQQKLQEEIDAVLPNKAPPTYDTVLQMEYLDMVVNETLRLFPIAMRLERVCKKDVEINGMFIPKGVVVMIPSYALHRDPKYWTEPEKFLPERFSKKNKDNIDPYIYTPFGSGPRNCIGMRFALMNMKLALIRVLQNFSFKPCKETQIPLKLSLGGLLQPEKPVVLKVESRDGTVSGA
# [9] = Intrinsic clearance in human liver microsomes; type: ADME; conditions: read-out: CLH
# [10] = Intrinsic clearance in rat liver microsomes; type: ADME; conditions: read-out: CLH
# [11] = Oral bioavailability in rat; type: ADME, organism-based; conditions: in vivo
# [12] = Half life in rat; type: ADME, organism-based; conditions: in vivo
SMILES,IC50 [1],IC50 [2],further results
O=c1n(Cc2cc([C@@H]3O[C@H](CO)[C@@H](O)[C@H](O)[C@H]3O)ccc2Cl)nc2ccccn12,> 90 µM,,
O=c1n(Cc2cc([C@@H]3O[C@H](CO)[C@@H](O)[C@H](O)[C@H]3O)ccc2Cl)nc2ccc(Cl)cn12,> 90 µM,0.08 µM,
O=c1n(Cc2cc([C@@H]3O[C@H](CO)[C@@H](O)[C@H](O)[C@H]3O)ccc2Cl)nc2ccc(Br)cn12,> 90 µM,0.107 µM,
Cc1ccc2nn(Cc3cc([C@@H]4O[C@H](CO)[C@@H](O)[C@H](O)[C@H]4O)ccc3Cl)c(=O)n2c1,> 90 µM,0.12 µM,
O=c1n(Cc2cc([C@@H]3O[C@H](CO)[C@@H](O)[C@H](O)[C@H]3O)ccc2Cl)nc2ccc(CO)cn12,,0.141 µM,
O=c1n(Cc2cc([C@@H]3O[C@H](CO)[C@@H](O)[C@H](O)[C@H]3O)ccc2Cl)nc2ccc(F)cn12,> 90 µM,,
O=c1n(Cc2cc([C@@H]3O[C@H](CO)[C@@H](O)[C@H](O)[C@H]3O)ccc2Cl)nc2ccc(C(F)(F)F)cn12,,0.762 µM,
O=c1n(Cc2cc([C@@H]3O[C@H](CO)[C@@H](O)[C@H](O)[C@H]3O)ccc2Cl)nc2cc(Cl)ccn12,,0.089 µM,
Cc1ccn2c(=O)n(Cc3cc([C@@H]4O[C@H](CO)[C@@H](O)[C@H](O)[C@H]4O)ccc3Cl)nc2c1,> 90 µM,,
O=c1n(Cc2cc([C@@H]3O[C@H](CO)[C@@H](O)[C@H](O)[C@H]3O)ccc2Cl)nc2cc(C(F)(F)F)ccn12,> 90 µM,0.252 µM,
COc1ccn2c(=O)n(Cc3cc([C@@H]4O[C@H](CO)[C@@H](O)[C@H](O)[C@H]4O)ccc3Cl)nc2c1,> 90 µM,5.48 µM,
O=c1n(Cc2cc([C@@H]3O[C@H](CO)[C@@H](O)[C@H](O)[C@H]3O)ccc2Cl)nc2cc(OCC(F)(F)F)ccn12,> 90 µM,5.7 µM,
Cc1cccc2nn(Cc3cc([C@@H]4O[C@H](CO)[C@@H](O)[C@H](O)[C@H]4O)ccc3Cl)c(=O)n12,> 90 µM,9.92 µM,
O=c1n(Cc2cc([C@@H]3O[C@H](CO)[C@@H](O)[C@H](O)[C@H]3O)ccc2Cl)nc2c(Cl)cccn12,> 90 µM,9 µM,
O=c1n(Cc2cc([C@@H]3O[C@H](CO)[C@@H](O)[C@H](O)[C@H]3O)ccc2Cl)nc2c(F)cccn12,> 90 µM,3.3 µM,
Cc1cc2nn(Cc3cc([C@@H]4O[C@H](CO)[C@@H](O)[C@H](O)[C@H]4O)ccc3Cl)c(=O)n2cc1Cl,,0.033 µM,IC50 [3]: > 11 µM; IC50 [4]: > 11 µM; IC50 [5]: > 11 µM; IC50 [6]: > 11 µM; IC50 [7]: > 11 µM; IC50 [8]: > 11 µM; microsomal CLint [9]: 3.6 µL/min/mg; microsomal CLint [10]: 2.8 µL/min/mg
CN1C(=O)N(c2ccc(Cc3cc([C@@H]4O[C@H](CO)[C@@H](O)[C@H](O)[C@H]4O)ccc3Cl)cc2)C(C)(C)C1=O,83.1 µM,0.248 µM,
CCN1C(=O)CN(c2ccc(Cc3cc([C@@H]4O[C@H](CO)[C@@H](O)[C@H](O)[C@H]4O)ccc3Cl)cc2)C1=O,,0.0109 µM,IC50 [3]: > 11 µM; IC50 [4]: > 11 µM; IC50 [5]: > 11 µM; IC50 [6]: > 11 µM; IC50 [7]: > 11 µM; IC50 [8]: > 11 µM; microsomal CLint [9]: 1.3 µL/min/mg; microsomal CLint [10]: 1.9 µL/min/mg; bioavailability [11]: 4%; half-life [12]: 35 min
CN1C(=O)CN(c2ccc(Cc3cc([C@@H]4O[C@H](CO)[C@@H](O)[C@H](O)[C@H]4O)ccc3Cl)cc2)C1=O,90 µM,0.489 µM,
